One compound from paper PMC6934184, “Selective DNA-PKcs inhibition extends the therapeutic index of localized radiotherapy and chemotherapy” (The Journal of Clinical Investigation, 2019) can be followed below.

The target of this assay is DNA-PK (Homo sapiens, UniProt P78527). The assay is described as follows: SelectScreen Z'LYTE. The assay is classed as biochemical. Further details: purchased Thermo Fisher Scientific (Life Technologies) SelectScreen. As to conditions: ATP Km app. Here is the method: The in vitro kinase selectivity of NU5455 was determined using the SelectScreen Broad Assay Panel (Thermo Fisher Scientific) involving activity and binding assays (Supplemental Table 1). […] Class IA PI3Ks were measured using the p85α subunit.
Kinase [ATP] % Assay Kinase [ATP] % Assay Kinase [ATP] % Assay Kinase [ATP] % Assay
DNA-PK Km app 98.3 Z LATS2 n/a 4.7 L KIT D820E n/a 1.3 L GSK3B (GSK3 beta) Km app -2.5 Z
PIK3C3 (hVPS34) Km app 85.9 A PRKCZ (PKC zeta) Km app 4.7 Z GRK1 n/a 1.3 L BMPR2 n/a -2.5 L
PIK3C2B (PI3K-C2 beta) 10 28.9 A FGFR1 Km app 4.7 Z BRSK2 n/a 1.2 L CDC42 BPB (MRCKB) Km app -2.5 Z
SNF1LK2 Km app 26.6 Z MINK1 Km app 4.6 Z NUAK1 (ARK5) Km app 1.2 A AMPK (A2/B2/G2) n/a -2.6 L
HCK Km app 18.0 Z CSF1R (FMS) Km app 4.3 Z CDK9/cyclin K n/a 1.0 L PRKG1 Km app -2.7 Z
NEK2 Km app 17.8 Z CSNK1G3 (CK1 gamma 3) Km app 4.2 Z NUAK2 n/a 1.0 L KIT T670E n/a -2.8 L
ALK Km app 17.3 Z STK32C (YANK3) n/a 4.2 L CDK2/cyclin O n/a 0.9 L ERBB4 (HER4) Km app -2.8 Z
FGFR3 K650M n/a 16.5 L STK22D (TSSK1) Km app 4.2 Z CAMKK2 (CaMKK beta) n/a 0.9 L PLK4 n/a -2.8 L
SIK3 n/a 16.1 L TAOK3 (JIK) n/a 4.2 L FGFR3 Km app 0.9 Z GRK7 Km app -3.0 Z
LYN A Km app 15.2 Z RPS6KA4 (MSK2) Km app 4.2 Z ULK2 n/a 0.9 L MAPKAPK2 Km app -3.1 Z
BMPR1B (ALK6) n/a 14.5 L PTK2B (FAK2) Km app 4.2 Z KIT D816V n/a 0.9 L FGFR4 Km app -3.1 Z
INSRR (IRR) Km app 14.1 Z CLK2 Km app 4.1 Z CAMK1 (CaMK1) 10 0.8 A CASK n/a -3.1 L […]

One may read the % inhibition as the drop in the measured response relative to a control, in per cent. High values mean strong suppression, low ones little suppression. The inhibition is how much of the control response was suppressed. A high value points to a strong effect. For the compound `CN(C(=O)CN1CCOCC1)c1ccc2sc3c(-c4cccc5c(=O)cc(N6CC7CCC(C6)O7)oc45)cccc3c2c1` [NU5455], the inhibition at 1 µM worked out at 98.3%. For the same compound, the “% inhibition” value (1 µM) was determined as 98%.
